Values of other authors in US20230310465A1, “NANO LIPID CARRIER SYSTEM FOR IMPROVING PERMEATION OF ACTIVE INGREDIENTS” (LEIUTIS PHARMACEUTICALS LLP, priority 2020, published 2023).

Details: from Akynezo, healthy subjects

- Tmax: about 5 hrs
Structure (SMILES): Cc1ccccc1-c1cc(N2CCN(C)CC2)ncc1N(C)C(=O)C(C)(C)c1cc(C(F)(F)F)cc(C(F)(F)F)c1 [Netupitant, 2-[3,5-bis(trifluoromethyl)phenyl]-N,2-dimethyl-N-[4-(2methylphenyl)-6-(4-methylpiperazin-1-yl)pyridin-3-yl]propenamide]
